These results are taken from PubChem BioAssay AID449740 (Southern Research Specialized Biocontainment Screening …, 2010).

The source made the active and inactive calls. The rule behind the calls is not given here.

Test system in one experiment: not listed separately
The experiment in a line: polymyxin IC50 shift, round 3, mechanism study, late-stage follow-up (AID 449740). To be noted: Salmonella Typhi WT vs phoP-, polymyxin IC50 shift, OD600 24 h; at 150 µM; stronger effect = higher value.
`O=C(Nc1ccc(I)cc1)N1CCCN(Cc2ccccc2F)C1`: the polymyxin IC50 shift difference WT minus phoP- is -9.38 (inactive).

Regarding `S=C(NCCc1ccc(Cl)cc1)Nc1ccncc1`, the polymyxin IC50 shift difference WT minus phoP- was -1.02 (inactive).

As to `O=C(Nc1ccc(Cl)cc1)N1CCCN(Cc2ccccc2Br)C1`, the polymyxin IC50 shift difference WT minus phoP- was -0.534 (inactive).

On to `O=C(Nc1ccc(Cl)cc1)N1CCCN(Cc2ccc(Br)cc2)C1`, for which the polymyxin IC50 shift difference WT minus phoP- was -3.85 (inactive).

The same experiment, now with this note: Salmonella Typhi WT vs phoP-, polymyxin IC50 shift, OD600 24 h; measured here: phoP- strain shift; at 150 µM; stronger effect = higher value.
`O=C(Nc1ccc(I)cc1)N1CCCN(Cc2ccccc2F)C1`: the polymyxin IC50 shift is 5.34.

For `CCn1cc(C(=O)O)c(=O)c2cc(F)c(N3CCN(C(=S)Nc4ccccc4C)CC3)cc21`, the polymyxin IC50 shift is -2.44.

In the case of `CCn1cc(C(=O)O)c(=O)c2cc(F)c(N3CCN(C(=S)Nc4ccccc4OC)CC3)cc21`, the polymyxin IC50 shift is -0.353.

In the case of `S=C(NCCc1ccc(Cl)cc1)Nc1ccncc1`, the polymyxin IC50 shift stood at 6.57.

On to `O=C(Nc1ccc(Cl)cc1)N1CCCN(Cc2ccccc2Br)C1`, for which the polymyxin IC50 shift came out at 6.73.

Turning to `O=C(Nc1ccc(Cl)cc1)N1CCCN(Cc2ccc(Br)cc2)C1`, the polymyxin IC50 shift stood at 0.497.

Still in this experiment, the particulars now being: Salmonella Typhi WT vs phoP-, polymyxin IC50 shift, OD600 24 h; measured here: wild-type strain shift; at 150 µM; stronger effect = higher value.
With `O=C(Nc1ccc(I)cc1)N1CCCN(Cc2ccccc2F)C1`, the polymyxin IC50 shift was -4.04.

For the compound `CCn1cc(C(=O)O)c(=O)c2cc(F)c(N3CCN(C(=S)Nc4ccccc4C)CC3)cc21`, the polymyxin IC50 shift is 4.87.

With `CCn1cc(C(=O)O)c(=O)c2cc(F)c(N3CCN(C(=S)Nc4ccccc4OC)CC3)cc21`, the polymyxin IC50 shift was determined as 4.08.

For `S=C(NCCc1ccc(Cl)cc1)Nc1ccncc1`, the polymyxin IC50 shift amounted to 5.55.

As to `O=C(Nc1ccc(Cl)cc1)N1CCCN(Cc2ccccc2Br)C1`, the polymyxin IC50 shift turned out to be 6.2.

With `O=C(Nc1ccc(Cl)cc1)N1CCCN(Cc2ccc(Br)cc2)C1`, the polymyxin IC50 shift was -3.36.

For a further experiment, the system named is Salmonella Typhi WT vs phoP-, polymyxin IC50 shift, OD600 24 h. The description is as above.
Settings: not given
For the compound `CCn1cc(C(=O)O)c(=O)c2cc(F)c(N3CCN(C(=S)Nc4ccccc4C)CC3)cc21`, the IC50 is 19 µM.

Turning to `CCn1cc(C(=O)O)c(=O)c2cc(F)c(N3CCN(C(=S)Nc4ccccc4OC)CC3)cc21`, the IC50 is 19 µM.
